Laboratory results reported in patent US4623641A, “Method of treating ulcers and erosions in the gastrointestinal system using PGI2 -methyl ester-beta cyclodextrin inclusion complexes” (Chinoin Gyogyszer es Vegyeszeti Termekek Gyara R.T., priority 1985, dated 1986).
Each block holds one compound with its values, some of them ahead of it.

What was measured:
stress ulcer = assay: Stress ulcer test (immobilized rats, ulcer index); format: in vivo, female wistar rats; conditions: for U.I. (delta %): control = 100
Experimental: For the following tests 200-250 g female wistar rats were fasted for 24 hours before the experiment. Water was given ad libium. A. STRESS ULCER TEST The rats were immobilized on their backs for 24 hours. After immobilization the animals were killed, and their stomachs were prepared for ulcer analysis. The gastric cytoprotective effect of PCCD was tested by administering it in the following way: Case A: At 0, 6th, 12th and 18th hour after the immobilization. Administrations were carried out both ip and per os. In both cases the animals were killed and their stomachs prepared for ulcer analysis. In each experiment the ulcer index was calculated. In the calculation of the U.I., each mm^2 of ulcer or erosion is 1 point. Bleeding results in an additional 5 points. Perforation means an additional 10 points. The number of animals is (n=20) in each group. Mean (%)±S.E.M. is calculated. Statistical analysis is done according to the Student's T-Test. Significance level, p is less than 0.05.

[1] = system: gastric lesions on the corpus mucosa; assay: Gastric cytoprotective test (ethanol-induced gastric lesions, A. Robert); format: in vivo, rats; conditions: for ED50: Rattus norvegicus, PCCD values relate to active ingredient
Experimental: For the following tests 200-250 g female wistar rats were fasted for 24 hours before the experiment. Water was given ad libium.
C. GASTRIC CYTOPROTECTIVE TEST
The following method according to the abovementioned reference was employed:
The cytoprotective substances were applied before giving ethanol p.o. or subcutaneously. As controls, prostacylin (PGI2) and PGE2 were used.
Evaluation was carried out by killing the animals and then removing their stomachs. The number of gastric lesions was determined in each case. The dose of the cytoprotective compounds giving a 50% inhibiting effect was determined. The number of gastric erosions in the stomachs of animals not treated with a cytoprotective agent was designated 100%.

gastric mucosa = conditions: in vivo; cited from earlier work
[2] = in vivo; cited from earlier work
[3] = Stability on oral application (acidic pH of the stomach); format: physicochemical; conditions: oral administration
[4] = 100 micrograms/kg i.p., PCCD data calculated for active ingredient

Structure (SMILES): OC[C@H]1O[C@@H]2O[C@H]3[C@H](O)[C@@H](O)[C@@H](O[C@H]4[C@H](O)[C@@H](O)[C@@H](O[C@H]5[C@H](O)[C@@H](O)[C@@H](O[C@H]6[C@H](O)[C@@H](O)[C@@H](O[C@H]7[C@H](O)[C@@H](O)[C@@H](O[C@H]8[C@H](O)[C@@H](O)[C@@H](O[C@H]1[C@H](O)[C@H]2O)O[C@@H]8CO)O[C@@H]7CO)O[C@@H]6CO)O[C@@H]5CO)O[C@@H]4CO)O[C@@H]3CO [Beta-cyclodextrin]
- U.I. ± S.E.M. (stress ulcer; 5 mg/kg i.p.): 6.8 ± 2.15
- U.I. (delta %) (stress ulcer; 5 mg/kg i.p.): 77.9%

Structure (SMILES): CN/C(=N/CCSCc1nc[nH]c1C)NC#N [Cimetidine]
- U.I. ± S.E.M. (stress ulcer; 10 mg/kg i.p.): 3.0 ± 1.08
- U.I. (delta %) (stress ulcer; 10 mg/kg i.p.): 38.9%
- U.I. ± S.E.M. (stress ulcer; 10 mg/kg p.o.): 2.82 ± 1.36
- U.I. (delta %) (stress ulcer; 10 mg/kg p.o.): 36.7%

Structure (SMILES): CCCCC[C@H](O)/C=C/[C@H]1[C@H](O)CC(=O)[C@@H]1C/C=C\CCCC(=O)O [PGE2]
- ED50 ([1]; po, orally): 0.03 mg/kg
- ED50 ([1]; sc, subcutaneously): 0.1 mg/kg
- cytoprotective effect compared with PGI2 ([1]; oral application): more effective
- decreasing the blood loss of the gastric mucosa induced by non-steroidal antiphlogistics (gastric mucosa): significantly effective
- therapy of peptic ulcers (gastric mucosa): significantly effective
- side effects [2]: diarrhogen side effects

Structure (SMILES): COc1ccc2c(c1)c(CC(=O)O)c(C)n2C(=O)c1ccc(Cl)cc1 [indomethacin]
- side effects [2]: ulcerogenic side effects

- stability compared with PGE2 [3]: more unstable than is PGE2
Structure (SMILES): CCCCC[C@H](O)/C=C/[C@@H]1[C@H]2C/C(=C/CCCC(=O)O)O[C@H]2C[C@H]1O [PGI2, prostacyclin]
- U.I. ± S.E.M. (stress ulcer; [4]): 5.4 ± 1.54
- U.I. (delta %) (stress ulcer; [4]): 70.0%
- ED50 ([1]; po, orally): 1.8 mg/kg
- ED50 ([1]; sc, subcutaneously): 0.04 mg/kg
- cytoprotective effect compared with PGE2 ([1]; administered subcutaneously): stronger cytoprotective effect than PGE2
